Test results: patent publication US20070160684A1, “Methods for increasing cancer cell chemosensitivity” (priority 2005, published 2007)

How the values were obtained:
[1] = test system: ATM Ser1981 phosphorylation; experiment: Western analysis of ATM phosphorylation in Pa-4 and Pa-4/HMGA2 cells; type: cell-based; settings: 2 μM Dox
Pa-4/HMGA2 cells = experiment: FACS analysis after caffeine and Dox (G2/M, sub-G1); type: cell-based; settings: 4 mM caffeine or 1 μM Dox
Experimental: Pa-4 and Pa-4/HMGA2 cells were seeded at 50-80% confluency in 35 mm dishes and serum starved overnight to synchronize cell cycle. […] Following treatment, cells were fixed in 70% ethanol overnight, stained with 20 μg/ml propidium iodide, and subjected to FACS analysis.
Apoptosis was quantified by assessing sub-G1 cell populations.

H2AX phosphorylation [2] = experiment: Western analysis of H2AX phosphorylation in HeLa and HeLa/HMGA2 cells; type: cell-based; settings: Dox
Experimental: (§1) To ascertain whether HMGA2 effects Dox-induced ATM signaling activation, phosphorylation of ATM Ser1981 and H2AX Ser139 was assayed in the presence and absence of Dox (2 μM in ATM assays, 1 μM in H2AX assays). At various timepoints after Dox treatment, cell lysates were removed and subjected to Western analyses using monoclonal anti-phospho-ATM antibodies (Ser1981), polyclonal anti-ATM antibodies (Santa Cruz Biotechnology, Santa Cruz, Calif.), monoclonal anti-phospho-H2AX antibodies ([…]) (Upstate Cell Signaling), or anti-H2AX antibodies. Control Western analyses were performed using monoclonal anti-actin antibodies. […] HeLa and HeLa/HMGA2 cells
The effect of HMGA2 on ATM and H2AX phosphorylation in HeLa cells was measured using the protocol described above. […] As for H2AX, results were similar to those observed in Pa-4 cells.

[3] = test system: HeLa and HeLa/HMGA2 cells; experiment: MTT cell viability assay; type: cell-based; settings: Dox 0-1 μM
From the text: HS578T, HCC1419, and CHO cells

[4] = test system: DNA-PKcs pT2609 and pS2056; experiment: Western analysis of DNA-PKcs phosphorylation; type: cell-based
Experimental: Dox treatment has been reported to lead to rapid and transient phosphorylation of DNA-PKcs at Thr-2609 (pT2609) and Ser-2056 (pS2056), respectively (Chen 2005). Equal amounts of protein lysates from HeLa and HeLa/HMGA2 cells were treated with 2 μM or 5 μM Dox, then subjected to Western analyses using polyclonal anti-phospho-DNA-PKcs-T2609/S2056 (Dr. David Chen, Univ. of Texas Southwestern Medical Center) and monoclonal anti-DNA-PKcs antibodies (Santa Cruz, Calif.). Control lysates were treated with vehicle only. Untreated and Dox-treated MO59K (DNA-PKcs proficient) and MO59J (DNA-PKcs deficient) cells were used as an additional control to assure antibody specificity.
To confirm that HMGA2 expression is at least in part responsible for sustained DNA-PKcs pT2609 and pS2056 signals following Dox exposure, siRNA was utilized to downregulate endogenous HMGA2 expression in Hs578T cells. siRNA against HMGA2 (si-HMGA2) was described previously (Boo 2005). The sense and antisense were annealed to a working concentration of 20 μM by incubation with annealing buffer (5×: 30 mM HEPES pH 7.4, 100 mM potassium acetate, 2 mM magnesium acetate) at 90° C. for one minute followed by incubation at 37° C. for one hour. The annealed siRNA was stored at −20° C. Transfection of siRNA was performed with GeneEraser (Stratagene, Calif.) according to manufacturer's instruction. Briefly, cells were seeded to a confluency of 50% on the day of transfection. GeneEraser was pre-incubated at room temperature in serum-free medium ten minutes before the addition of siRNA. The GeneEraser/si-HMGA2 solution was then incubated at room temperature for an additional 15 minutes before addition to cells in a serum-containing medium. The cells were allowed to incubate for various time periods without any medium change post-transfection. Control cells were transfected with a scrambled siRNA. Cells were treated with Dox 48 hours after transfection.

caspase-3 and p53 = experiment: Western analysis of caspase-3 cleavage and p53 levels; type: cell-based; settings: Dox
[5] = test system: ATM-deficient pEBS7 cells and ATM-proficient YZ5 cells; experiment: MTT cell viability assay; type: cell-based; settings: Dox 0-1 μM
H2AX phosphorylation [6] = experiment: Western analysis of H2AX phosphorylation in U2OS.GK41 cells; type: cell-based; settings: 2 μM Dox, 1 hour and 2 hours, cells expressing ATR-kd
Experimental: For experiments using U2OS.GK41 cells, cells were pre-treated with 1 μg/ml doxycycline for 48 […] to induce expression of ATR-kd. Non-induced control cells were pre-treated with vehicle only. Induced and non-induced cells were then treated with 2 μM Dox. At 1 hour and 2 hours after Dox treatment, cell lysates were removed and subjected to Western analyses using anti-phospho-H2AX or anti-actin antibodies.

[7] = in a subject; cited from earlier work
H2AX phosphorylation [8] = experiment: Western analysis of H2AX phosphorylation in pEBS7, YZ5, and MO59J cells; type: cell-based; settings: 2 μM Dox for 2 hours
Experimental: pEBS7, YZ5, and MO59J cells were treated with 2 μM Dox for 2 hours, at which point cell lysates were removed and subjected to Western analyses using anti-phospho-H2AX antibodies. Control Western analyses were performed using monoclonal anti-actin antibodies.

topo IIα = experiment: Western analysis of steady-state topo II levels in HS578T cells; type: cell-based; settings: 1 μM Dox, various time points
Experimental: HS578T cells were treated with 1 μM Dox, and at various time points cell lysates were removed and subjected to Western analyses using monoclonal anti-topo IIα antibody (BD Biosciences, San Jose, Calif.). Control Western analyses were performed using monoclonal anti-actin antibodies.

[9] = test system: H2AX Ser139 phosphorylation; experiment: Western analysis of H2AX phosphorylation in Pa-4 and Pa-4/HMGA2 cells; type: cell-based; settings: 1 μM Dox
Experimental: as §1
NU7026 (Calbiochem, San Diego, Calif.) was dissolved in DMSO at 5 mM and stored at −20° C. […] Cell lysates were removed and subjected to Western analyses using monoclonal anti-phospho-H2AX (Ser 139) antibodies. Control Western analyses were performed using monoclonal anti-actin antibodies.

Compound: COc1cccc2c1C(=O)c1c(O)c3c(c(O)c1C2=O)C[C@@](O)(C(=O)CO)C[C@@H]3O[C@H]1C[C@H](N)[C@H](O)[C@H](C)O1 [Dox, doxorubicin]
- ATM phosphorylation, Pa-4 versus Pa-4/HMGA2 [1]: roughly equal in Pa-4 and Pa-4/HMGA2 cells
- ATM phosphorylation ([1]; Pa-4 cells): rapid phosphorylation of ATM
- apoptosis (sub-G1 cell population), single agent (Pa-4/HMGA2 cells): substantially larger increase in Pa-4/HMGA2 cells
- cell cycle distribution / cells in G2/M, single agent (Pa-4/HMGA2 cells; 48 hours): greatly increased the number of cells in G2/M phase
- induction of H2AX phosphorylation (H2AX phosphorylation [2]): ablation of Dox-mediated induction of phosphorylation
- cell viability, HeLa/HMGA2 versus HeLa [3]: HMGA2 expression enhancing the chemosensitivity of cells to Dox
- DNA-PKcs phosphorylation signals ([4]; 2 μM or 5 μM Dox, two hours, HeLa/HMGA2 cells): Accumulation of DNA-PKcs phosphorylation signals
- DNA-PKcs phosphorylation signals, Hs578T versus HCC1419 ([4]; increasing concentrations of Dox): recapitulated in HMGA2-expressing Hs578T breast cancer cells, but not in HMGA2-underexpressing HCC1419 breast cancer cells
- caspase-3 cleavage fragment (caspase-3 and p53): increased in HeLa/HMGA2, HepG2 and Hs578T cells
- steady-state p53 levels (caspase-3 and p53; HeLa, HeLa/HMGA2, CL48, and HepG2 cells): increased steady-state p53 levels
- decrease in viability, pEBS7 versus YZ5 ([5]; 72 hours): less pronounced in the ATM-negative pEBS7 cells
- cell viability ([5]; 72 hours after treatment): decreased cell viability in both cell types in a dose-dependent manner
- induction of H2AX phosphorylation (H2AX phosphorylation [6]): delay in Dox-mediated induction of H2AX phosphorylation
- maximum cumulative dosage limited by side effects [7]: 450 to 550 mg
- induction of H2AX phosphorylation (H2AX phosphorylation [8]; YZ5 cells and MO59J cells): substantial increase in H2AX phosphorylation following Dox treatment
- induction of H2AX phosphorylation (H2AX phosphorylation [8]; pEBS7 cells): lack of Dox-mediated induction
- steady-state topo II levels (topo IIα): remained comparable over the time course of Dox treatment
- induction of H2AX phosphorylation ([9]; Pa-4/HMGA2 cells): ablation of Dox-mediated induction of H2AX phosphorylation
- H2AX phosphorylation ([9]; Pa-4 cells): rapid phosphorylation
